The values below come from patent publication US12679855B2, “Inhibitors of the enzyme enolase for precision oncology” (Board of Regents, The University of Texas System, priority 2019, dated 2026).

Entries after “also recorded” stand apart in the source; their conditions may differ. Read-outs that look alike come from different tables or passages of the source.

Series [1] deals with D423 (ENO1-deleted) glioma cells. Briefly: Cell proliferation assay (crystal violet) in ENO1-deleted glioma cells. Format: cell-based. The following applies: for IC50: Glioma cell; for selectivity for ENO1-deleted cells: versus ENO1-rescued (D423 ENO1) and ENO1-intact (LN319) glioma cells. The procedure:
Cell culture experiments. Cell culture experiments were conducted using the D423-MG cell line. 1p36 homozygous deletion in D423 includes the genes from CAMTAJ to SLC25A33; this includes ENO1. Isogenic ENO1 ectopically rescued lines were described previously (pCMV ENO1 5X) (Muller et al., 2012, which is incorporated by reference herein). An ENO1-intact cell line (LN319) was used as a control for sensitivity to Enolase inhibitors. Cells were routinely cultured in Dulbecco's modified Eagle's medium supplemented with 10% fetal bovine serum.
Cell proliferation assay. Cell Proliferation was determined by crystal violet staining, as previously described (Leonard et al., 2016 and Satani et al., 2016). The cell lines used were D423 (ENO1-deleted), D423 ENO1 (overexpressing ENO1) and LN319 (control). Glioma cells were seeded in 96-well plates and treated with varying concentrations of the inhibitors described above for 7 days. Cells were then washed with PBS, fixed with 10% formalin and stained with 0.05% crystal violet. Washed and dried plates were dye-extracted using 10% acetic acid, and absorbance was measured at 595 nm using Omegastar Plate Reader (BMG Labtech). To test the efficacy of the synthesized under hypoxic conditions, 1×10^4 cells were plated in 96-well plates, treated with VCY13, VCY15, VCY16, or VCY17 and incubated for 3 days in a hypoxia station (Don Whitley Scientific, Shipley, UK) set at 1% O2 and 5% CO2. Crystal violet staining was then performed as described above.
Additional Biological Data. Pro-drug inhibitor structures and corresponding IC50 values against ENO1-deleted cells are shown below in Table 2. The name and corresponding structures of all synthesized inhibitors are given in left and middle columns of each table. Pro-drug moieties in blue represent a second pro-drug leave group while those in red represent a first pro-drug leave group. Some inhibitors also contain an acetyl-protected hydroxamate, which is also a biologically labile moiety. ENO1-deleted (D423), ENO1-isogenically rescued (D423 ENO1), and ENO1-WT (LN319) cells were treated with either pro-drug inhibitor for 5 days at 21% O2, unless otherwise specified. […] IC50,D423 values at 21% O2 are given in the right columns of each table. Experiments conducted at 1% O2 (hypoxic) or 70% O2 (hyperoxic) conditions are noted, where appropriate.

Series [2] relates to D502 glioma cell line (ENO1-heterozygously deleted). Briefly: Enolase inhibitor sensitivity (crystal violet), ENO1-heterozygously deleted D502 cells. Format: cell-based. Conditions: DMEM 10% FBS, terminal cell density by crystal violet after 7 days. As to the method: (§1) Enolase inhibitor sensitivity experiments were performed, using DMEM containing 10% FBS cell culture media. IC50 (expressed in nM) were calculated based on terminal cell density measured by crystal violet after 7 days of growth. […] Left table: POMHEX. Middle table: HEX. Right table: Ratio of sensitivity to POMHEX versus HEX for each cell line.
(§2) (FIG. 19A) ENO1-deleted (D423, red), ENO1-isogenically rescued (D423 ENO1, blue), and ENO1-WT (LN319, grey) cells were treated POMHEX in RPMI media under the same experimental conditions used for NCI-60 screening. […] IC50 (expressed in nM) were calculated based on terminal cell density measured by crystal violet.
(§3) Cell proliferation assay.

In series [3] the test system is U343 glioma cell line (ENO1-heterozygously deleted). As to the kind of experiment: Enolase inhibitor sensitivity (crystal violet), ENO1-heterozygously deleted U343 cells. Format: cell-based. The following applies: DMEM 10% FBS, terminal cell density by crystal violet after 7 days. As to the method: as §1, §2, §3
The nature of series [4]: Plasma levels after IV injection of POMHEX in monkeys. Format: in vivo, monkey. The following applies: after IV POMHEX, monkey 2.5 mg/kg, mouse 10 mg/kg. As to the method:
(§4) FIGS. 16A-16C show the ex-vivo half-life of POMHEX in biological fluids limits its clinical utility. […] Lower levels of carboxylesterase in human blood results in a longer half-life of POMHEX. (FIG. 16B) Dramatically higher drug exposure in non-human primates as compared to mice following IV injections of POMHEX. Mice (n=3; pooled) and monkeys (n=3; pooled) were injected IV with POMHEX at 10 mg/kg and 2.5 mg/kg, respectively. […] POMHEX was undetectable (<50 nM) even at the earliest time point, in both monkey and mouse experiments; at 98 nM, POMHEX was detectable 1-minute post-injection, but at no time thereafter. […] HEX and HemiPOMHEX were not measured at concentrations higher than 10 mg/kg due to the hazards associated with the derivatization agent, trimethylsilyl-diazomethane in hexane (TMS-DAM). (FIG. 16C) Schematic of POMHEX in circulation when administered IP or IV in mice. Due to high levels of plasma carboxylesterase, a gradient decrease in POMHEX away from the site of injection is accompanied by a concurrent increase in HemiPOMHEX.

Series [5] in a line: Plasma and organ levels after injection of POMHEX in mice. The following applies: 24 hrs. after a single intravenous injection of 10 mg/kg POMHEX. Format: in vivo, mouse. As to the method: FIGS. 3A-3D show the ex-vivo half-life of POMHEX in biological fluids may limit its clinical utility. (FIG. 3A) Ex-vivo half-life of POMHEX in biological fluids. POMHEX has a half-life of ~30 seconds in mouse plasma. The degradation may be prevented by heat inactivation or de-proteinatization with acetonitrile. […] (FIG. 3B) Plasma concentration of HEX and HemiPOMHEX following a single intravenous injection of POMHEX, as a function of time. Mice were injected IV with 10 mg/kg POMHEX and sacrificed at the indicated time points. Each data point represents a single animal. Note, POMHEX itself was below the detection limit (100 nM) even at the earliest time point. It is believed that this may not be reflective of the physiological state as separation of plasma from hematocrit is required for the measurements, which adds approximately 6 minutes of processing time during which POMHEX may be degraded to HemiPOMHEX. (FIG. 3C) The results of the same experiment but performed with an intraperitoneal injection of POMHEX, at a dose of 40 mg/kg. (FIG. 3D) Quantification of POMHEX and its metabolites in mouse organs 24 hrs. after a single intravenous injection of 10 mg/kg POMHEX.
as §4, with “Due to high levels of plasma carboxylesterase, a gradient decrease in POMHEX away from the site of injection is accompanied by a concurrent increase in HemiPOMHEX.” left out

The conditions of series [6]: nitroimidazole in VCY17, nitrofuran in VCY15; cited from earlier work.
Setting [7] is: 120 h, ENO1-deleted (D423) cells, 5 days, 21% O2, read-out: IC50,D423.
[8] abbreviates: 120 h, 21% O2, 5 days where stated, read-out: IC50 against D423 (ENO1-deleted) cells.
The mark [9] stands for this setting: D423 cells, 1% O2 (hypoxic), read-out: IC50,D423 at 1% O2.

For `O=C1C(P(=O)(NCc2ccccc2)OCOC(=O)N2CCC(N3CCCCC3)CC2)CCCN1O` (stereo not shown) [CDP9], the IC50 in series [1] (setting [7]) was determined as 36000 nM.

For `CC(C)(C)C(=O)OCOP(=O)(NCc1cccc(F)c1)C1CCCN(O)C1=O` (stereo not shown) [CDP12, ((((3-fluorobenzyl)amino)(1-hydroxy-2-oxopiperidin-3-yl)phosphoryl)oxy)methyl pivalate], in series [1] (setting [7]), the IC50 was determined as 249 nM.

On to `CC(C)(C)C(=O)OCOP(=O)(NCc1ccc(F)c(F)c1)C1CCCN(O)C1=O` (stereo not shown) [CDP13, ((((3,4-difluorobenzyl)amino)(1-hydroxy-2-oxopiperidin-3-yl)phosphoryl)oxy)methyl pivalate], for which the IC50 in series [1] (setting [7]) is 221 nM.

Consider `CC(C)(C)C(=O)OCOP(=O)(NCc1ccc(F)cc1F)C1CCCN(O)C1=O` (stereo not shown) [CDP14, ((((2,4-difluorobenzyl)amino)(1-hydroxy-2-oxopiperidin-3-yl)phosphoryl)oxy)methyl pivalate], for which, in series [1] (setting [7]), the IC50 stood at 65 nM.

In the case of `CC(C)(C)C(=O)OCOP(=O)(NCC1CCCCC1)C1CCCN(O)C1=O` (stereo not shown) [CDP18, ((((Cyclohexylmethyl)amino)(1-hydroxy-2-oxopiperidin-3-yl)phosphoryl)oxy)methyl pivalate], the “greater potency compared to benzylamine pro-drug (FLM37)” value in series [1] (D423 cells) is listed as ~ 3 fold. Further, the IC50 in series [1] (setting [8]) and in series [1] (setting [7]) was 77 nM in each case.

As for `CC(C)(C)C(=O)OCOP(=O)(NCc1c(F)cccc1F)C1CCCN(O)C1=O` (stereo not shown) [CDP19, ((((2,6-difluorobenzyl)amino)(1-hydroxy-2-oxopiperidin-3-yl)phosphoryl)oxy)methyl pivalate], in series [1] (setting [7]), the IC50 came out at 112 nM.

As to `O=C1C(P(=O)(O)O)CCCN1O` (stereo not shown) [HEX], the IC50 in series [2] is 28800 nM; in series [3] it was 19700 nM. In addition, the “half-life in monkey compared to mouse” value in series [4] was “longer in monkey”.

Turning to `CC(C)(C)C(=O)OCOP(=O)(O)C1CCCN(O)C1=O` (stereo not shown) [HemiPOMHEX], in series [5], the “level in mouse organs” value is listed as “below the quantification limit (BQL)”. For the same compound, in series [4], the “half-life in monkey compared to mouse” value is recorded as “longer in monkey”.

As for `CC(C)(C)C(=O)OCOP(=O)(NCc1ccccn1)C1CCCN(O)C1=O` (stereo not shown) [KY9, (((1-hydroxy-2-oxopiperidin-3-yl)((pyridin-2-ylmethyl)amino)phosphoryl)oxy)methyl pivalate], in series [1] (setting [7]), the IC50 was found to be 96 nM.

`CC(=O)ON1CCCC(P(=O)(NCc2ccccc2)OCCSC(=O)C(C)(C)C)C1=O` (stereo not shown) [VCY13, 3-((benzylamino)(2-(pivaloylthio)ethoxy)phosphoryl)-2-oxopiperidin-1-yl acetate]: the IC50 in series [1] (setting [8]) and in series [1] (setting [7]) was 38 nM in each case. Moreover, the “selectivity for ENO1-deleted cells” value in series [1] is reported as “selective toxicity against ENO1-deleted; also recorded: dose-dependent selectivity for ENO1-deleted cells”.

On to `CC(=O)ON1CCCC(P(=O)(NCc2ccccc2)OCc2ccc([N+](=O)[O-])o2)C1=O` (stereo not shown) [VCY15, 3-((benzylamino)((S-nitrofuran-2-yl)methoxy)phosphoryl)-2-oxopiperidin-1-yl acetate], for which the IC50 in series [1] (setting [8]) was found to be 230 nM; in series [1] (setting [7]), 390 nM; in series [1] (setting [9]), 97 nM. Moreover, the “difference in bioactivation from 21% to 1% O2” value in series [1] (taking into account HIF-1α/hypoxia-driven increase in ENO2 expression) was ~ 5 fold. Besides, the “selectivity for ENO1-deleted cells” value in series [1] was “selective toxicity against ENO1-deleted”. Moreover, the “redox potential of the nitroheterocycle” value in series [6] was −330 mV.

On to `CC(=O)ON1CCCC(P(=O)(NCc2ccccc2)OCc2ccc([N+](=O)[O-])s2)C1=O` (stereo not shown) [VCY16, 3-((benzylamino)((5-nitrothiophen-2-yl)methoxy)phosphoryl)-2-oxopiperidin-1-yl acetate], for which the IC50 stood at 234 nM in series [1] (setting [7]) and 40 nM in series [1] (setting [9]).

Take `CC(C)(C)C(=O)OCOP(=O)(NCc1ccc(F)cc1)C1CCCN(O)C1=O` (stereo not shown) [VCY19, ((((4-fluorobenzyl)amino)(1-hydroxy-2-oxopiperidin-3-yl)phosphoryl)oxy)methyl pivalate]: the IC50 in series [1] (setting [7]) was 129 nM.

For `CC(=O)ON1CCCC(P(=O)(NCc2ccc(F)cc2)OCc2ccc([N+](=O)[O-])o2)C1=O` (stereo not shown) [VCY22, 3-(((4-fluorobenzyl)amino)((5-nitrofuran-2-yl)methoxy)phosphoryl)-2-oxopiperidin-1-yl acetate], the figures for the IC50 in series [1] (setting [7]) and in series [1] (setting [9]) were 933 nM and 540 nM, respectively.

As for `N#CCCOP(=O)(NCc1ccccc1)C1CCCN(O)C1=O` (stereo not shown) [VCY26], the IC50 in series [1] (setting [7]) stood at 5000 nM.

`CC(C)(C)C(=O)OCOP(=O)(NCC1CC1)C1CCCN(O)C1=O` (stereo not shown) [VCY32, ((((Cyclopropylmethyl)amino)(1-hydroxy-2-oxopiperidin-3-yl)phosphoryl)oxy)methyl pivalate]: the IC50 in series [1] (setting [7]) is 9 nM. Moreover, the “selectivity for ENO1-deleted cells” value in series [1] is “selective for ENO1-deleted cells”.
